Source: the supplement of paper PMC13380429

Key:
Settings in all cases: 72 h
[1] = tested on: HepG2; assay: relative viability EC50 (midpoint between 100% and the lowest measured viability); higher = less toxic
[2] = tested on: Caco-2; assay: as above
[3] = tested on: Vero E6; assay: as above
[4] = tested on: U2OS; assay: as above
[5] = tested on: Calu-3; assay: as above
[6] = tested on: HepG2; assay: drug sensitivity score (DSS) for viability; higher = more toxic; extreme values may be limits of the assay
[7] = tested on: Caco-2; assay: as above
[8] = tested on: Vero E6; assay: as above
[9] = tested on: U2OS; assay: as above
[10] = tested on: Calu-3; assay: as above
[11] = tested on: HepG2; assay: cell viability relative to DMSO; higher = less toxic
[12] = tested on: Caco-2; assay: as above
[13] = tested on: Vero E6; assay: as above
[14] = tested on: U2OS; assay: as above
[15] = tested on: Calu-3; assay: as above

CC1=C(/C=C/C(C)=C/C=C/C(C)=C/C=C/C=C(C)/C=C/C=C(C)/C=C/C2=C(C)CCCC2(C)C)C(C)(C)CCC1 [beta-carotene]
relative viability EC50 [1]: > 10 µM | relative viability EC50 [2]: > 10 µM | relative viability EC50 [3]: > 10 µM | relative viability EC50 [4]: > 10 µM | relative viability EC50 [5]: > 10 µM | drug sensitivity score [6]: 0 | drug sensitivity score [7]: 0 | drug sensitivity score [8]: 0 | drug sensitivity score [9]: 0 | drug sensitivity score [10]: 0 | cell viability ([11]; 1 nM): 96.1% | cell viability ([11]; 10 nM): 103% | cell viability ([11]; 100 nM): 94.6% | cell viability ([11]; 1000 nM): 110% | cell viability ([11]; 10000 nM): 106% | cell viability ([12]; 1 nM): 89.3% | cell viability ([12]; 10 nM): 99.3% | cell viability ([12]; 100 nM): 104% | cell viability ([12]; 1000 nM): 92.7% | cell viability ([12]; 10000 nM): 98.5% | cell viability ([13]; 1 nM): 93.8% | cell viability ([13]; 10 nM): 102% | cell viability ([13]; 100 nM): 96.3% | cell viability ([13]; 1000 nM): 104% | cell viability ([13]; 10000 nM): 108% | cell viability ([14]; 1 nM): 92.6% | cell viability ([14]; 10 nM): 95.1% | cell viability ([14]; 100 nM): 102% | cell viability ([14]; 1000 nM): 93.9% | cell viability ([14]; 10000 nM): 101% | cell viability ([15]; 1 nM): 98.9% | cell viability ([15]; 10 nM): 104% | cell viability ([15]; 100 nM): 104% | cell viability ([15]; 1000 nM): 97.4% | cell viability ([15]; 10000 nM): 105%

O=C(O)c1ccccc1 [benzoic-acid]
relative viability EC50 [1]: > 10 µM | relative viability EC50 [2]: > 10 µM | relative viability EC50 [3]: > 10 µM | relative viability EC50 [4]: > 10 µM | relative viability EC50 [5]: > 10 µM | drug sensitivity score [6]: 0 | drug sensitivity score [7]: 0 | drug sensitivity score [8]: 0 | drug sensitivity score [9]: 0 | drug sensitivity score [10]: 0 | cell viability ([11]; 1 nM): 101% | cell viability ([11]; 10 nM): 95.6% | cell viability ([11]; 100 nM): 104% | cell viability ([11]; 1000 nM): 92.4% | cell viability ([11]; 10000 nM): 96.3% | cell viability ([12]; 1 nM): 99% | cell viability ([12]; 10 nM): 101% | cell viability ([12]; 100 nM): 95.9% | cell viability ([12]; 1000 nM): 98.7% | cell viability ([12]; 10000 nM): 98.7% | cell viability ([13]; 1 nM): 97.1% | cell viability ([13]; 10 nM): 97.6% | cell viability ([13]; 100 nM): 100% | cell viability ([13]; 1000 nM): 97.7% | cell viability ([13]; 10000 nM): 102% | cell viability ([14]; 1 nM): 98.9% | cell viability ([14]; 10 nM): 102% | cell viability ([14]; 100 nM): 99.1% | cell viability ([14]; 1000 nM): 98.2% | cell viability ([14]; 10000 nM): 95.9% | cell viability ([15]; 1 nM): 99.4% | cell viability ([15]; 10 nM): 101% | cell viability ([15]; 100 nM): 96.8% | cell viability ([15]; 1000 nM): 99.2% | cell viability ([15]; 10000 nM): 92.6%

Oc1ccc(O)cc1 [hydroquinone]
relative viability EC50 [1]: > 10 µM | relative viability EC50 [2]: > 10 µM | relative viability EC50 [3]: > 10 µM | relative viability EC50 [4]: > 10 µM | relative viability EC50 [5]: > 10 µM | drug sensitivity score [6]: 0.3 | drug sensitivity score [7]: 0 | drug sensitivity score [8]: 0 | drug sensitivity score [9]: 0 | drug sensitivity score [10]: 0 | cell viability ([11]; 1 nM): 106% | cell viability ([11]; 10 nM): 92.4% | cell viability ([11]; 100 nM): 94.7% | cell viability ([11]; 1000 nM): 100% | cell viability ([11]; 10000 nM): 84.6% | cell viability ([12]; 1 nM): 100% | cell viability ([12]; 10 nM): 97.6% | cell viability ([12]; 100 nM): 94.2% | cell viability ([12]; 1000 nM): 104% | cell viability ([12]; 10000 nM): 106% | cell viability ([13]; 1 nM): 93.3% | cell viability ([13]; 10 nM): 100% | cell viability ([13]; 100 nM): 94.8% | cell viability ([13]; 1000 nM): 105% | cell viability ([13]; 10000 nM): 111% | cell viability ([14]; 1 nM): 95.2% | cell viability ([14]; 10 nM): 91% | cell viability ([14]; 100 nM): 95.4% | cell viability ([14]; 1000 nM): 89% | cell viability ([14]; 10000 nM): 117% | cell viability ([15]; 1 nM): 90.5% | cell viability ([15]; 10 nM): 90% | cell viability ([15]; 100 nM): 93.7% | cell viability ([15]; 1000 nM): 100% | cell viability ([15]; 10000 nM): 113%

C/C(=C(\CCOP(=O)(O)O)SC(=O)c1ccccc1)N(C=O)Cc1cnc(C)nc1N [benfotiamine]
relative viability EC50 [1]: > 10 µM | relative viability EC50 [2]: > 10 µM | relative viability EC50 [3]: > 10 µM | relative viability EC50 [4]: > 10 µM | relative viability EC50 [5]: > 10 µM | drug sensitivity score [6]: 0 | drug sensitivity score [7]: 0 | drug sensitivity score [8]: 0 | drug sensitivity score [9]: 0 | drug sensitivity score [10]: 0 | cell viability ([11]; 1 nM): 95.1% | cell viability ([11]; 10 nM): 92.4% | cell viability ([11]; 100 nM): 88.4% | cell viability ([11]; 1000 nM): 92.7% | cell viability ([11]; 10000 nM): 97% | cell viability ([12]; 1 nM): 99.7% | cell viability ([12]; 10 nM): 101% | cell viability ([12]; 100 nM): 91% | cell viability ([12]; 1000 nM): 94.6% | cell viability ([12]; 10000 nM): 89.1% | cell viability ([13]; 1 nM): 100% | cell viability ([13]; 10 nM): 98.3% | cell viability ([13]; 100 nM): 98.9% | cell viability ([13]; 1000 nM): 97.4% | cell viability ([13]; 10000 nM): 96.2% | cell viability ([14]; 1 nM): 99.1% | cell viability ([14]; 10 nM): 101% | cell viability ([14]; 100 nM): 95.7% | cell viability ([14]; 1000 nM): 98.5% | cell viability ([14]; 10000 nM): 99.5% | cell viability ([15]; 1 nM): 97.2% | cell viability ([15]; 10 nM): 96.9% | cell viability ([15]; 100 nM): 95.8% | cell viability ([15]; 1000 nM): 95.4% | cell viability ([15]; 10000 nM): 92.1%

CCC(C)(C)C(=O)C(=O)N1CCC[C@H]1C(=O)OCCCc1cccnc1 [GPI-1046]
relative viability EC50 [1]: > 10 µM | relative viability EC50 [2]: > 10 µM | relative viability EC50 [3]: > 10 µM | relative viability EC50 [4]: > 10 µM | relative viability EC50 [5]: > 10 µM | drug sensitivity score [6]: 0.6 | drug sensitivity score [7]: 0 | drug sensitivity score [8]: 0 | drug sensitivity score [9]: 0 | drug sensitivity score [10]: 0 | cell viability ([11]; 1 nM): 86.9% | cell viability ([11]; 10 nM): 98.6% | cell viability ([11]; 100 nM): 108% | cell viability ([11]; 1000 nM): 90.7% | cell viability ([11]; 10000 nM): 91.4% | cell viability ([12]; 1 nM): 96.5% | cell viability ([12]; 10 nM): 96% | cell viability ([12]; 100 nM): 89.5% | cell viability ([12]; 1000 nM): 105% | cell viability ([12]; 10000 nM): 105% | cell viability ([13]; 1 nM): 100% | cell viability ([13]; 10 nM): 96.4% | cell viability ([13]; 100 nM): 100% | cell viability ([13]; 1000 nM): 91.6% | cell viability ([13]; 10000 nM): 96.9% | cell viability ([14]; 1 nM): 97.6% | cell viability ([14]; 10 nM): 95.3% | cell viability ([14]; 100 nM): 91.7% | cell viability ([14]; 1000 nM): 102% | cell viability ([14]; 10000 nM): 104% | cell viability ([15]; 1 nM): 101% | cell viability ([15]; 10 nM): 88.9% | cell viability ([15]; 100 nM): 106% | cell viability ([15]; 1000 nM): 103% | cell viability ([15]; 10000 nM): 113%

NC1(C(=O)O)CC1 [ACPC]
relative viability EC50 [1]: > 10 µM | relative viability EC50 [2]: > 10 µM | relative viability EC50 [3]: > 10 µM | relative viability EC50 [4]: > 10 µM | relative viability EC50 [5]: > 10 µM | drug sensitivity score [6]: 0 | drug sensitivity score [7]: 0 | drug sensitivity score [8]: 0 | drug sensitivity score [9]: 0 | drug sensitivity score [10]: 0 | cell viability ([11]; 1 nM): 103% | cell viability ([11]; 10 nM): 98.9% | cell viability ([11]; 100 nM): 90% | cell viability ([11]; 1000 nM): 99.5% | cell viability ([11]; 10000 nM): 93.4% | cell viability ([12]; 1 nM): 92.3% | cell viability ([12]; 10 nM): 98.6% | cell viability ([12]; 100 nM): 104% | cell viability ([12]; 1000 nM): 87.7% | cell viability ([12]; 10000 nM): 105% | cell viability ([13]; 1 nM): 102% | cell viability ([13]; 10 nM): 96.9% | cell viability ([13]; 100 nM): 96.7% | cell viability ([13]; 1000 nM): 94.5% | cell viability ([13]; 10000 nM): 98.4% | cell viability ([14]; 1 nM): 93.8% | cell viability ([14]; 10 nM): 96% | cell viability ([14]; 100 nM): 95.9% | cell viability ([14]; 1000 nM): 96.3% | cell viability ([14]; 10000 nM): 98.1% | cell viability ([15]; 1 nM): 98.6% | cell viability ([15]; 10 nM): 93.4% | cell viability ([15]; 100 nM): 93.1% | cell viability ([15]; 1000 nM): 102% | cell viability ([15]; 10000 nM): 96.8%

C[N+]1(C)[C@@H]2CC[C@H]1C[C@@H](OC(=O)C(O)c1ccccc1)C2 (stereo not given in full) [homatropine-methylbromide]
relative viability EC50 [1]: > 10 µM | relative viability EC50 [2]: > 10 µM | relative viability EC50 [3]: > 10 µM | relative viability EC50 [4]: > 10 µM | relative viability EC50 [5]: > 10 µM | drug sensitivity score [6]: 0 | drug sensitivity score [7]: 0.2 | drug sensitivity score [8]: 0 | drug sensitivity score [9]: 0 | drug sensitivity score [10]: 0 | cell viability ([11]; 1 nM): 98.7% | cell viability ([11]; 10 nM): 95.3% | cell viability ([11]; 100 nM): 102% | cell viability ([11]; 1000 nM): 91.8% | cell viability ([11]; 10000 nM): 98.9% | cell viability ([12]; 1 nM): 100% | cell viability ([12]; 10 nM): 90.8% | cell viability ([12]; 100 nM): 99.7% | cell viability ([12]; 1000 nM): 106% | cell viability ([12]; 10000 nM): 84.2% | cell viability ([13]; 1 nM): 101% | cell viability ([13]; 10 nM): 97.5% | cell viability ([13]; 100 nM): 106% | cell viability ([13]; 1000 nM): 108% | cell viability ([13]; 10000 nM): 98.8% | cell viability ([14]; 1 nM): 96.7% | cell viability ([14]; 10 nM): 101% | cell viability ([14]; 100 nM): 95.2% | cell viability ([14]; 1000 nM): 102% | cell viability ([14]; 10000 nM): 96.4% | cell viability ([15]; 1 nM): 105% | cell viability ([15]; 10 nM): 108% | cell viability ([15]; 100 nM): 114% | cell viability ([15]; 1000 nM): 94.2% | cell viability ([15]; 10000 nM): 102%
